# Patent US20260293896A1, “PLANT GROWTH REGULATOR, PLANT GROWTH ACCELERATION METHOD, OR PLANT GROWTH-REGULATING PRODUCT” (KUREHA CORPORATION, priority 2022, published 2026)
# Key:
# Type in all cases: in vivo
# [1] = tested on: rapeseed; test: Evaluation Example 6: Comparison of Elongated Plant Height of Rapeseed; details: petri dish, 5 mL, 25° C, 7th day after seeding, EGT 0.5 mM and/or component (A) 0.5 mM
# Description: The plant growth regulators of Examples 14 to 17 and Comparative Examples 19 to 23 were prepared so as to attain the concentrations indicated in Table 6 below. EGT, Leu, Val, Tyr and Ser were commercially available products, and pure water was used as a solvent.
# (§1) Into a 9 cm petri dish on which filter paper was spread, 5 mL of the plant growth regulator was added. Ten seeds of rapeseed were sown per one petri dish. In a growth chamber set at room temperature of 25° C., the light period was 16 hours and the dark period was 8 hours. The light conditions were set such that the light intensity was 5000 lx in the central part under irradiation with the fluorescent lamp.
# (§2) The plant height of the rapeseed on the 7th day after seeding was evaluated.
# [2] = tested on: wheat; test: Evaluation Example 11: Comparison of Elongated Plant Height of Wheat; details: petri dish, 5 mL, 24° C, 7th day after seeding, EGT 0.5 mM and/or component (A) 0.1 mM (vitamin D2 0.01 mM)
# Description: The plant growth regulators of Examples 27 to 31 and Comparative Examples 37 to 42 were prepared so as to attain the concentrations indicated in Table 11 below. EGT, Met, His, Cys, 5-ALA and vitamin D2 were commercially available products, and pure water was used as a solvent.
# (§3) Into a 9 cm petri dish on which filter paper was spread, 5 mL of the plant growth regulator was added. Ten seeds of wheat were sown per one petri dish. In a thermostatic chamber set at room temperature of 24° C., the light period was 16 hours and the dark period was 8 hours. The light conditions were set using a fluorescent lamp (PLANT FLEC, 40 W LED fluorescent lamp for plant growth, electric bulb color, available from Nippon Medical and Chemical Instruments Co., Ltd.) such that the light intensity was 5000 lx in the central part under irradiation with the fluorescent lamp.
# (§4) The plant height of the wheat on the 7th day after seeding was evaluated.
# [3] = tested on: rapeseed; test: Evaluation Example 5: Comparison of Elongated Plant Height of Rapeseed; details: petri dish, 5 mL, 25° C, 7th day after seeding, EGT 0.5 mM and/or component (A) 0.5 mM
# Description: The plant growth regulators of Examples 9 to 13 and Comparative Examples 13 to 18 were prepared so as to attain the concentrations indicated in Table 5 below. EGT, Gln, Trp, Met, Phe and acetic acid were commercially available products, and pure water was used as a solvent.
# as §1, §2
# [4] = tested on: Arabidopsis thaliana (Col-0); test: Evaluation Example 2: Comparison of Seed Yield of Arabidopsis thaliana; details: 50 mL added on 8th, 10th, 12th, 14th days after seeding; harvest 89th day; EGT 1 mM and/or component (A) 0.1 mM
# Description: The plant growth regulators of Examples 3 to 5 and Comparative Examples 4 to 7 were prepared so as to attain the concentrations indicated in Table 2 below. EGT, citric acid, GB and GSSG were commercially available products, and pure water was used as a solvent.
# One individual Arabidopsis thaliana (Col-0) was sown in a plastic pot having a diameter of 60 mm and a height of 55 mm. Plastic deep dishes each having a diameter of 160 mm and a height of 28 mm were prepared, and six pots were respectively placed therein. As soil, 45 mL of vermiculite, 22.5 mL of granular soil (Kumiai horticultural soil), and 22.5 mL of vermiculite were placed in the pot in this order.
# In a growth chamber set at room temperature of 22° C., the light period was 16 hours and the dark period was 8 hours. The light conditions were set such that the light intensity was 5000 lx in the central part under irradiation with the fluorescent lamp. Water supply was conducted from the bottom, and the water level was set at about 5 mm. Chemical treatment was started […]. More specifically, on the 8th, 10th, 12th, and 14th days after seeding, 50 mL of the plant growth regulator was added instead of water supply.
# On the 89th day after seeding, seeds were harvested, and the seed yield was evaluated.
# [5] = tested on: wheat; test: Evaluation Example 17: Comparison of Elongated Plant Height of Wheat; details: petri dish, 5 mL, 24° C, 7th day after seeding, EGT 1 mM and/or uracil 0.01, 0.1 or 10 mM
# Description: The plant growth regulators of Examples 39 to 41 and Comparative Examples 55 to 58 were prepared so as to attain the concentrations indicated in Table 17 below. EGT and uracil were commercially available products, and pure water was used as a solvent.
# as §3, §4
# [6] = tested on: wheat; test: Evaluation Example 10: Comparison of Elongated Plant Height of Wheat; details: petri dish, 5 mL, 24° C, 7th day after seeding, EGT 0.5 mM and/or component (A) 0.5 mM
# Description: The plant growth regulators of Examples 23 to 26 and Comparative Examples 32 to 36 were prepared so as to attain the concentrations indicated in Table 10 below. EGT, GABA, ornithine, carnitine and maleic acid were commercially available products, and pure water was used as a solvent.
# as §3, §4
# [7] = tested on: radish (Akamaru Hatsuka); test: Evaluation Example 13: Comparison of Aboveground Part Weight and Underground Part Weight of Radish; details: 50 mL on 15th, 17th, 20th days, evaluated 27th day after seeding, EGT 0.5 mM and/or Glu 0.5 mM
# Description: The plant growth regulators of Example 34 and Comparative Examples 46 and 47 were prepared so as to attain the concentrations indicated in Table 13 below. EGT and Glu were commercially available products, and pure water was used as a solvent.
# In a plastic pot having a diameter of 105 mm and a height of 90 mm, 450 g of granular soil (Kumiai horticultural soil) was placed, and one individual radish (Akamaru Hatsuka) was sown per one pot.
# The radish was managed in a greenhouse set at room temperature of 25° C. Chemical treatment was started 2 weeks after seeding. More specifically, on the 15th, 17th, and 20th days after seeding, 50 mL of the plant growth regulator was added.
# On the 27th day after seeding, the aboveground part weight and underground part weight were evaluated.
# [8] = tested on: tomato (Regina); test: Evaluation Example 14: Comparison of Number of Fruits and Total Fruit Weight of Tomato; details: 50 mL on 32nd, 34th, 36th days, fruits ≥20 mm collected 75th day after seeding, EGT 0.1 mM and/or Arg 0.1 mM
# Description: The plant growth regulators of Example 35 and Comparative Examples 48 and 49 were prepared so as to attain the concentrations indicated in Table 14 below. EGT and Arg were commercially available products, and pure water was used as a solvent.
# In a plastic pot having a diameter of 135 mm and a height of 110 mm, 1 kg of granular soil (Kumiai horticultural soil) was placed, and one individual tomato (Regina) was sown per one pot.
# The tomato was managed in a greenhouse set at room temperature of 25° C. Chemical treatment was started 5 weeks after seeding. More specifically, on the 32nd, 34th, and 36th days after seeding, 50 mL of the plant growth regulator was added.
# On the 75th day after seeding, fruits having a diameter of 20 mm or greater were collected, and the number and total weight of the collected fruits were evaluated.
compound,measurement,setting,value
"CC(C)C[C@H](N)C(=O)O [compound 20, L-leucine]","Elongated plant height, ratio to untreated control",[1],1.0
"NCC(=O)CCC(=O)O [compound 41, 5-aminolevulinic acid]","Elongated plant height, ratio to untreated control",[2],0.9
"CSCC[C@H](N)C(=O)O [compound 38, L-methionine]","Elongated plant height, ratio to untreated control",[2],0.8
"CSCC[C@H](N)C(=O)O [compound 16, L-methionine]","Elongated plant height, ratio to untreated control",[3],1.0
"C[N+](C)(C)[C@@H](Cc1c[nH]c(=S)[nH]1)C(=O)[O-] [Comparative Example 4, L-(+)-ergothioneine]","Seed yield, ratio to untreated control",[4],1.2
"O=c1cc[nH]c(=O)[nH]1 [compound 58, uracil]","Elongated plant height, ratio to untreated control",[5],1.0
"N[C@@H](CO)C(=O)O [compound 23, L-serine]","Elongated plant height, ratio to untreated control",[1],1.0
"C[N+](C)(C)[C@@H](Cc1c[nH]c(=S)[nH]1)C(=O)[O-] [Comparative Example 13, L-(+)-ergothioneine]","Elongated plant height, ratio to untreated control",[3],1.1
"O=C(O)CC(O)(CC(=O)O)C(=O)O [Comparative Example 5, citric acid]","Seed yield, ratio to untreated control",[4],0.8
"C=C1CC[C@H](O)C/C1=C/C=C1\CCC[C@]2(C)[C@@H]([C@H](C)/C=C/[C@H](C)C(C)C)CC[C@@H]12 [compound 42, vitamin D2]","Elongated plant height, ratio to untreated control",[2],0.9
"CC(C)[C@H](N)C(=O)O [compound 21, L-valine]","Elongated plant height, ratio to untreated control",[1],1.0
"C[N+](C)(C)[C@@H](Cc1c[nH]c(=S)[nH]1)C(=O)[O-] [Comparative Example 55, L-(+)-ergothioneine]","Elongated plant height, ratio to untreated control",[5],1.1
"C[N+](C)(C)[C@@H](Cc1c[nH]c(=S)[nH]1)C(=O)[O-] [Comparative Example 32, L-(+)-ergothioneine]","Elongated plant height, ratio to untreated control",[6],1.1
"N[C@@H](CS)C(=O)O [compound 40, L-cysteine]","Elongated plant height, ratio to untreated control",[2],1.0
"C[N+](C)(C)[C@@H](Cc1c[nH]c(=S)[nH]1)C(=O)[O-] [Comparative Example 19, L-(+)-ergothioneine]","Elongated plant height, ratio to untreated control",[1],1.1
"N[C@@H](Cc1ccc(O)cc1)C(=O)O [compound 22, L-tyrosine]","Elongated plant height, ratio to untreated control",[1],1.0
"N[C@@H](Cc1ccccc1)C(=O)O [compound 17, L-phenylalanine]","Elongated plant height, ratio to untreated control",[3],1.1
"C[N+](C)(C)[C@@H](Cc1c[nH]c(=S)[nH]1)C(=O)[O-] [Comparative Example 46, L-(+)-ergothioneine]","Aboveground part weight, ratio to untreated control",[7],1.1
same,"Underground part weight, ratio to untreated control",[7],1.1
"NCCC[C@H](N)C(=O)O [compound 34, ornithine]","Elongated plant height, ratio to untreated control",[6],0.9
"NCCCC(=O)O [compound 33, γ-aminobutyric acid]","Elongated plant height, ratio to untreated control",[6],1.0
"C[N+](C)(C)[C@@H](Cc1c[nH]c(=S)[nH]1)C(=O)[O-] [Comparative Example 48, L-(+)-ergothioneine]","Number of fruits, ratio to untreated control",[8],1.2
same,"Total fruit weight, ratio to untreated control",[8],1.2
"C[N+](C)(C)CC(O)CC(=O)[O-] (stereo not shown) [compound 35, carnitine]","Elongated plant height, ratio to untreated control",[6],0.9
"C[N+](C)(C)[C@@H](Cc1c[nH]c(=S)[nH]1)C(=O)[O-] [Comparative Example 37, L-(+)-ergothioneine]","Elongated plant height, ratio to untreated control",[2],1.1
"O=c1cc[nH]c(=O)[nH]1 [compound 57, uracil]","Elongated plant height, ratio to untreated control",[5],1.0
"CC(=O)O [compound 18, acetic acid]","Elongated plant height, ratio to untreated control",[3],1.1
"NC(=O)CC[C@H](N)C(=O)O [compound 14, L-glutamine]","Elongated plant height, ratio to untreated control",[3],1.1
"O=c1cc[nH]c(=O)[nH]1 [compound 56, uracil]","Elongated plant height, ratio to untreated control",[5],1.1
"O=C(O)/C=C\C(=O)O [compound 36, maleic acid]","Elongated plant height, ratio to untreated control",[6],0.9
"N[C@@H](Cc1c[nH]c2ccccc12)C(=O)O [compound 15, L-tryptophan]","Elongated plant height, ratio to untreated control",[3],0.5
"N[C@@H](Cc1c[nH]cn1)C(=O)O [compound 39, L-histidine]","Elongated plant height, ratio to untreated control",[2],1.0
"N[C@@H](CCC(=O)O)C(=O)O [Comparative Example 47, L-glutamic acid]","Aboveground part weight, ratio to untreated control",[7],1.1
same,"Underground part weight, ratio to untreated control",[7],1.1
"N=C(N)NCCC[C@H](N)C(=O)O [Comparative Example 49, L-arginine]","Number of fruits, ratio to untreated control",[8],1.0
same,"Total fruit weight, ratio to untreated control",[8],0.9
"C[N+](C)(C)CC(=O)[O-] [compound 6, glycine betaine]","Seed yield, ratio to untreated control",[4],1.0
